# Experimental data reported in PMC4147587, “Synthesis and Analgesic Effects of μ-TRTX-Hhn1b on Models of Inflammatory and Neuropathic Pain” (Toxins, 2014).
# Where two headings read alike, the source gives them in different places.
# System: motor coordination of rats (latency to fall off the rotarod)
# Format: in vivo, rat (Sprague-Dawley)
# Conditions: vs baseline, n = 6
# Protocol: Motor activity was assessed using a rotarod apparatus for rats (Coulbourn Instruments, Lehigh Valley, PA, USA). The rotarod might be set at any speed from 0 to 50 rpm. For motor coordination assessment, rats were trained for 2 days by walking them each day on an accelerating rotarod from 4 to 40 rpm for 10 min. […] Motor performance was considered as the latency to fall off the rotarod apparatus determined from the mean time in three trials for each rat at each time.
smiles,measurement,setting,value
CC[C@H](C)[C@H](NC(=O)[C@H](CCC(=O)O)NC(=O)[C@H](Cc1ccc(O)cc1)NC(=O)[C@H](CCCCN)NC(=O)[C@@H]1CSSC[C@@H]2NC(=O)[C@H](CCC(N)=O)NC(=O)[C@H](CC(=O)O)NC(=O)[C@H](CC(N)=O)NC(=O)[C@H](CO)NC(=O)[C@@H]3CCCN3C(=O)[C@H](CC(N)=O)NC(=O)[C@@H]3CSSC[C@H](NC(=O)[C@H](C(C)C)NC(=O)[C@H](CC(C)C)NC(=O)[C@H](CC(N)=O)NC(=O)[C@H](CO)NC(=O)[C@H](CO)NC(=O)[C@H](CCCCN)NC(=O)[C@H](CSSC[C@H](NC(=O)[C@@H](N)CCC(=O)O)C(=O)N[C@@H](CC(C)C)C(=O)NCC(=O)N[C@@H](Cc4ccccc4)C(=O)NCC(=O)N[C@@H](CCCCN)C(=O)NCC(=O)N3)NC2=O)C(=O)N[C@@H](CO)C(=O)N[C@@H](CCCNC(=N)N)C(=O)N[C@@H](CCCCN)C(=O)N[C@@H](Cc2c[nH]cn2)C(=O)N[C@@H](CCCNC(=N)N)C(=O)N[C@@H](Cc2c[nH]c3ccccc23)C(=O)N1)C(N)=O [μ-TRTX-Hhn1b],latency to fall off the rotarod,"0.1 mg/kg, 30 min and 90 min after administration",no significant change in latencies to fall off the rotarod
same,latency to fall off the rotarod,"0.2 mg/kg, 30 min after administration, p < 0.05",significantly (p < 0.05) reduced latencies
same,latency to fall off the rotarod,"0.2 mg/kg, 90 min after administration",not at 90 min
